Read-outs that look alike come from different tables or passages of the source. Marks after values point to notes of the source that are not given here.

The test system of data set [1] is alpha2-adrenergic receptors. The settings on record: cited from earlier work.
A further data set relates to radiation dermatitis. Particulars: topical, applied up to 20 minutes before radiotherapy; cited from earlier work.
The procedure of data set [2]:
(§1) Saturated solutions were prepared by adding an excess of drug substance to various solvents and storing the samples in sealed containers for 24 hours at room temperature with continuous stirring.
(§2) After the equilibration period, samples were centrifuged or filtered and the brimonidine tartrate was quantified using the Thermo Scientific Dionex U3000 UPLC-UV system. The chromatographic conditions are described below: • Column: Sunfire C18 150 mm×4.6 mm, 3.5 μm • Temperature of column: 40° C. • Volume injected: […] • Flow: 0.8 ml/minute • UV detection: 246 nm
Saturated solutions were prepared, incubated and measured as described in Example 1.

How the values of data set [3] were obtained: as §1
The majority of the samples were stirred using a magnetic stirrer; however, in the case of viscous samples (such as pure glycerine), the samples were stirred using a rotary mixer. The speed of the rotary mixer was adjusted to ensure proper mixing of the sample, this generally involving slower rotation speeds.
as §2
This is another data set of the same source.

For data set [4] the following is noted: value as per literature (ALPHAGAN Product Monograph), conditions not specified, cited from earlier work.

As to `Brc1c(NC2=NCCN2)ccc2nccnc12` [Brimonidine], the “selectivity for alpha2-adrenergic receptors over alpha1-adrenergic receptors” value in data set [1] was 1,000 times.

`CNC[C@H](O)c1ccc(O)c(O)c1` [epinephrine]: in the data set on radiation dermatitis, the “patients showing a significant benefit” value is recorded as 50%.

Regarding brimonidine tartrate, in data set [2] (PG/PEG-400/GLY/PVP (20:10:5:1) vs PG/PEG-400/GLY/PVP/water (20:10:5:1:40)), the “active agent solubilised by non-volatile mixture compared to the aqueous mixture” value is recorded as “approximately 22%”. In addition, the figures for the “saturation in the aqueous solvent phase of the primary formulation” value in data set [2] (concentration of 1% brimonidine tartrate) and in data set [2] (concentration of 1.5% brimonidine tartrate) were “around 30%” and about 50%, respectively. For the same compound, the Max solubility in data set [2] (in PG/PEG-400 (20:10)) is listed as 0.45 % (w/w); in data set [2] (in PG/PEG-400/GLY (20:10:5)) it was 0.66 % (w/w); in data set [2] (in PG/PEG-400/GLY/PVP (20:10:5:1)) it was 0.72 % (w/w); in data set [2] (in PG/PEG-400/GLY/PVP/Water (20:10:5:1:40)), 3.3 % (w/w); in data set [2] (in PG/PEG-400/PVP (20:10:1)), 0.45 % (w/w); in data set [3] (in ARLASOLVE DMI, 24 hours, room temperature) it was 0.01 % (w/w). Besides, the Max solubility was >8.5*** % (w/w) in data set [3] (in DMSO, visual solubility, UPLC-UV not performed); 0.72* % (w/w) in data set [3] (in GLUCAM E10, 24 hours, room temperature); 0.88* % (w/w) in data set [3] (in GLUCAM E20, 24 hours, room temperature); 1.61 % (w/w) in data set [3] (in Glycerine (GLY, 20 ml scintillation flask)); 0.01 % (w/w) in data set [3] (in Hexylene Glycol, 24 hours, room temperature); 0.06 % (w/w) in data set [3] (in Na Pyrrolidone Carboxylate (AJIDEW L50), 24 hours, room temperature). Besides, the Max solubility in data set [3] (in PEG-400, 24 hours, room temperature) is reported as 0.10 % (w/w); in data set [3] (in Propylene Carbonate, 24 hours, room temperature), 0.01** % (w/w); in data set [3] (in Propylene glycol, measured value), 0.56 % (w/w); in data set [3] (in TRANSCUTOL, 24 hours, room temperature), 0.05 % (w/w); in data set [3] (in WATER, measured value), 6.40 % (w/w); in data set [4] (in Propylene glycol) it was ~0.1**** % (w/w). For the same compound, the Max solubility in data set [4] (in WATER) is 3.4**** % (w/w).

The record behind these values is patent publication US20240100044A1, “HYDROGEL COMPOSITION AND USES THEREOF IN THE PREVENTION AND/OR TREATMENT OF SKIN DAMAGE CAUSED BY RADIATION” (TARIAN PHARMA, priority 2021, published 2024).
